The text below walks through data of patent US5362497A, “Transdermal therapeutic composition” (priority 1989, dated 1994).

Each structure is given as a SMILES string. A value given as a limit tells only on which side of the number the result lay.

What all share (assay type): in vivo, SD rats
Series [1] deals with hypertensive reaction induced by angiotensin I. Briefly: Transdermal absorption test: inhibition of hypertensive reaction induced by angiotensin I in rats.
Experimental: Using 9-week-old male SD rats, the transdermal therapeutic tape (6 mg as compound (I)/rat) was applied to a clipped area (6 cm^2) of the abdominal skin and the area of exposure was covered by the occluded dressing method. The transdermal absorption effect was evaluated daily by monitoring the inhibition rate (%) against hypertensive reaction induced by angiotensin I. Angiotensin I was administered in an intravenous dose of 300 ng/kg (rats).
Using 9-week-old male SD rats, the transdermal therapeutic tape (9 mg as compound (I)/rat) was applied to a clipped area (6 cm^2) of the abdominal skin and the area of exposure was covered by the occluded dressing method.
A short description of series [2]: TRH concentration in plasma after transdermal application (radioimmunoassay). The note with it: for concentration at 0.5 h: 0.5 h after administration; for concentration at 1 h: 1 h after administration; for concentration at 2 h: 2 h after administration; for concentration at 4 h: 4 h after administration; for concentration at 6 h: 6 h after administration. Here is the method:
The above transdermal therapeutic composition was put on a clipped abdomen of male SD rats (7-week-old, 240 to 270 g, 4 heads) and fixed with a surgical tape. After 0.5, 1, 2, 4, 6 and 24 hours, the blood was collected from the tail vein. After the blood was treated with heparin, 50 μl of a reagent (aqueous solution containing 0.01 g/l of 8-hydroxyquinoline sulfate, 0.15 g/l of EDTA-2Na and 0.05 g/l of Tween 20) was added to 0.5 ml of the blood to separate the plasma. The TRH concentration in the plasma was determined by the below-mentioned radioimmunoassay. To 100 μl of the separated plasma were added 100 μl of 0.7% bovine serum albumin, 100 μl of anti-TRH antibody (500-fold dilution) and 100 μl of ^125 I-labeled TRH (about 10000 dpm), and the resulting mixture was incubated at 4° C. for 3 days. The secondary antibody (100 μl of anti-γ-globulin serum and 100 μl of normal rabbit serum) was then added, and the mixture was incubated at 4° C. for 1 day. The supernatant was removed by centrifugation at 3000 rpm, and the radioactivity of the precipitate was determined by a γ counter.
On the other hand, 10% polyvinyl alcohol gel (pH 4, buffered with 0.01M citric acid-0.01M disodium phosphate) containing 2% TRH was formulated to make the diameter and thickness 3.2 cm and 0.1 cm respectively (sticking area: 8 cm^2; TRH content: 16 mg), and applied to SD rats (4 heads) in the same manner as mentioned above. The TRH concentration in the plasma was determined by the radioimmunoassay in the same manner as mentioned above.

Series [3] in a line: Molsidomine concentration in plasma after transdermal application (HPLC). Here is the method:
The above transdermal therapeutic composition was put on a clipped abdomen of male SD rats (7-week-old, 240 to 270 g, 5 heads) and fixed with a surgical tape. After 1, 2, 4, 6 and 24 hours, the blood was collected from the tail vein, and the concentration of molsidomine in the plasma was determined by HPLC.
On the other hand, 0.5 g of molsidomine was dissolved in 3 g of propylene glycol, and 0.35 g of the solution was absorbed into a rayon web of nonwoven fabric and applied to SD rats in the same manner as mentioned above.

The nature of series [4]: Vinpocetine concentration in plasma after transdermal application (HPLC). Here is the method: The above transdermal therapeutic composition was put on a clipped abdomen of male SD rats (7-week-old, 240 to 270 g, 4 heads) and fixed with a surgical tape. Just before the administration and after 0.5, 1, 2, 4, 6 and 24 hours, the blood was collected from the tail vein. After the blood was treated with heparin, the plasma was separated. The concentration of vinpocetine in the plasma was determined by HPLC after the plasma was cleaned up by Sep-Pak C18 (Waters).
On the other hand, 0.35 g of 4% aqueous suspension of vinpocetine was absorbed into a web of nonwoven fabric and applied to SD rats in the same manner as mentioned above.

Setting [5] is: Example 1 tape, 6 mg as compound (I)/rat.
Setting [6] is: Example 2 tape, procedure of Example 1.
[7] abbreviates: Example 3 tape, procedure of Example 1.
[8] abbreviates: Example 4 tape, 9 mg as compound (I)/rat.
Where [9] appears, read: rat, plasma, topical or ocular, Example 6 composition.
Setting [10] is: rat, plasma, topical or ocular, comparison: 10% polyvinyl alcohol gel pH 4, 2% TRH (16 mg), 8 cm^2.

Regarding `O=C(O)CN1C(=O)[C@@H](N[C@@H](CCCCC2CCNCC2)C(=O)O)CSc2ccccc21` [Compound (I), (R)-3-[(S)-1-carboxy-5-(4-piperidyl)pentyl]amino-4-oxo-2,3,4,5-tetrahydro-1,5-benzothiazepine-5-acetic acid], in series [1] (setting [5]), the “duration of effect (inhibition of hypertensive reactivity induced by angiotensin I)” value was greater than 24 h and the transdermal absorption entry was “sufficiently absorbed transdermally”. Also, the “initiation time of 80% inhibition against hypertensive reactivity induced by angiotensin I” value in series [1] (Example 1 tape, 6 mg as compound (I)/rat, abdominal skin 6 cm^2, angiotensin I 300 ng/kg i.v.) is “five”. In series [1] (Example 1 tape, 6 mg as compound (I)/rat, five hours after administration), the “inhibition against hypertensive reactivity induced by angiotensin I” value came to 80%. Moreover, in series [1] (setting [6]), the “duration of effect (inhibition of hypertensive reaction by angiotensin I)” value was greater than 24 h, the “initiation time of 80% inhibition against hypertensive reaction by angiotensin I” value is on record as “three” and the transdermal absorption entry is on record as “sufficiently absorbed transdermally”. For the same compound, the “inhibition against hypertensive reaction by angiotensin I” value in series [1] (Example 2 tape, three hours after administration) was 80%. In addition, the “inhibition against hypertensive reaction by angiotensin I” value in series [1] (Example 3 tape, five hours after administration) came to 80%. For the same compound, in series [1] (setting [7]), the “duration of effect (inhibition of hypertensive reaction by angiotensin I)” value is greater than 24 h, the “initiation time of 80% inhibition against hypertensive reaction by angiotensin I” value is listed as “five” and the transdermal absorption entry was “sufficiently absorbed transdermally”. Further, in series [1] (setting [8]), the “duration of effect (inhibition of hypertensive reactivity by angiotensin I)” value was greater than 24 h and the transdermal absorption result is on record as “sufficiently absorbed transdermally”. In addition, the “initiation time of 80% inhibition against hypertensive reactivity by angiotensin I” value in series [1] (Example 4 tape, 9 mg as compound (I)/rat, abdominal skin 6 cm^2) is listed as “five”. In addition, the “inhibition against hypertensive reactivity by angiotensin I” value in series [1] (Example 4 tape, 9 mg as compound (I)/rat, five hours after administration) is 80%.
For the compound `NC(=O)[C@@H]1CCCN1C(=O)[C@H](Cc1cnc[nH]1)NC(=O)[C@@H]1CCC(=O)N1` [TRH, L-pyroglutamyl-L-histidyl-L-prolinamide], in series [2] (Example 6 composition), the “TRH concentration in the plasma (in words)” value is on record as “rapidly increased”. Further, the “TRH concentration in the plasma (in words)” value in series [2] (comparison: 10% polyvinyl alcohol gel pH 4, 2% TRH (16 mg), 8 cm^2) is reported as “very low”. In series [2] (setting [9]), this compound returned a concentration at 0.5 h of 59 ng/mL, a concentration at 1 h of 88.9 ng/mL, a concentration at 2 h of 110 ng/mL and a concentration at 4 h of 391 ng/mL. The compound also displayed a concentration at 6 h in series [2] (setting [9]) of 326 ng/mL. The same compound showed a concentration at 24 h in series [2] (rat, plasma, topical or ocular, Example 6 composition, 24 h after administration) of 82.4 ng/mL. Besides, the Cmax in series [2] (rat, plasma, topical or ocular, Example 6 composition, read-out: maximum concentration in the plasma) was roughly 400 ng/mL. Besides, the Tmax in series [2] (rat, plasma, topical or ocular, Example 6 composition, read-out: time of maximum concentration in the plasma) is 4 h. In addition, in series [2] (setting [10]), the concentration at 0.5 h worked out at 8.3 ng/mL, the concentration at 1 h was 8 ng/mL, the concentration at 2 h is 4.5 ng/mL and the concentration at 4 h was determined as 3 ng/mL. This compound also showed a concentration at 6 h in series [2] (setting [10]) of 1.8 ng/mL.
Take `CCOC(=O)[N-]c1cn(N2CCOCC2)n[o+]1` [molsidomine, N-ethoxycarbonyl-3-morpholinosydnonimine]: the “concentration of molsidomine in the blood (in words)” value in series [3] (Example 5 composition) is recorded as “a high concentration of molsidomine in the blood was observed”. Also, in series [3] (comparison: solution of 0.5 g molsidomine in 3 g propylene glycol, 0.35 g on nonwoven fabric), the “concentration of molsidomine in the plasma” value is given as “below the detection limit”. The concentration at 1 h in series [3] (rat, plasma, topical or ocular, Example 5 composition, 1 h after administration) came out at 123 ng/mL. This compound also gave a concentration at 2 h in series [3] (rat, plasma, topical or ocular, Example 5 composition, 2 h after administration) of 235 ng/mL. In addition, the concentration at 4 h in series [3] (rat, plasma, topical or ocular, Example 5 composition, 4 h after administration) worked out at 451 ng/mL. The same compound gave a concentration at 6 h in series [3] (rat, plasma, topical or ocular, Example 5 composition, 6 h after administration) of 322 ng/mL. In series [3] (rat, plasma, topical or ocular, Example 5 composition, 24 h after administration), this compound came in with a concentration at 24 h of 169 ng/mL.
`CCOC(=O)C1=C[C@]2(CC)CCCN3CCc4c(n1c1ccccc41)[C@@H]32` [vinpocetine, apovincamic acid ethyl ester]: the “concentration of vinpocetine in the plasma (in words)” value in series [4] (Example 7 composition) is “rapidly increased, and the required concentration was maintained during a period of 24 hours”. In addition, the “Average concentration in plasma” value in series [4] (Example 7 composition, just before administration) came out at 0 ng/mL. Besides, the “concentration of vinpocetine in the plasma” value in series [4] (comparison: 0.35 g of 4% aqueous suspension of vinpocetine on nonwoven fabric) is listed as “below the detection limit”. Also, in series [4] (rat, plasma, topical or ocular, Example 7 composition, 0.5 h after administration), the concentration at 0.5 h was determined as 149 ng/mL. Also, the concentration at 1 h in series [4] (rat, plasma, topical or ocular, Example 7 composition, 1 h after administration) was 155 ng/mL. The concentration at 2 h in series [4] (rat, plasma, topical or ocular, Example 7 composition, 2 h after administration) is 80.1 ng/mL. Also, in series [4] (rat, plasma, topical or ocular, Example 7 composition, 4 h after administration), the concentration at 4 h amounted to 60.7 ng/mL. Also, the concentration at 6 h in series [4] (rat, plasma, topical or ocular, Example 7 composition, 6 h after administration) amounted to 74.1 ng/mL. In addition, in series [4] (rat, plasma, topical or ocular, Example 7 composition, 24 h after administration), the concentration at 24 h worked out at 64.3 ng/mL.
